US20090163586A1, “Bis-(Sulfonylamino) Derivatives in Therapy 205” (AstraZeneca AB, priority 2007, published 2009)

Target: T1, human mPGES-1 (Homo sapiens, UniProt O14684)
T1 sequence (O14684 1-152): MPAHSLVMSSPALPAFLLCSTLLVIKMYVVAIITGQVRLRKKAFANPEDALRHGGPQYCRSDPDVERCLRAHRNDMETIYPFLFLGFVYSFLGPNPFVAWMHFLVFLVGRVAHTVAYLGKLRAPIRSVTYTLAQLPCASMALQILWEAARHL
Assay: Microsomal prostaglandin E synthase biochemical assay
Details: microsome preparation containing human mPGES-1; PGH2 10.8 μM, GSH 2.5 mM, pH 6.8; PGE2 by HTRF; average of at least n=2
Procedure, shortened: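 Human mPGES-1 microsomes at 2 μg/mL were pre-incubated 15 min with compound (60 μM to 0.002 μM) in 50 mM potassium phosphate pH 6.8 with 2.5 mM GSH. The reaction was started with 10.8 μM PGH2 and stopped after 1 minute with acidic ferric chloride/citrate. PGE2 was quantified by HTRF; IC50 is the mean of at least 2 runs.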

SMILES | IC50 [nM]
NS(=O)(=O)c1ccccc1NS(=O)(=O)c1cccc(-c2cccc(CO)c2)c1 [Example 171, 2-[[3-[3-(Hydroxymethyl)phenyl]phenyl]sulfonylamino]benzenesulfonamide] | 1700
NS(=O)(=O)c1ccccc1NS(=O)(=O)c1cccc(-c2ccc(CO)cc2)c1 [Example 172, 2-[[3-[4-(Hydroxymethyl)phenyl]phenyl]sulfonylamino]benzenesulfonamide] | 7300
Cc1cc(NC(=O)Nc2ccc(Cl)cc2)ccc1S(=O)(=O)Nc1ccccc1S(N)(=O)=O [Example 176, 3-(4-Chlorophenyl)-1-[3-methyl-4-[(2-sulfamoylphenyl)sulfamoyl]phenyl]urea] | 900
CNS(=O)(=O)c1ccc2c(c1)-c1cc(S(=O)(=O)Nc3ccccc3S(N)(=O)=O)ccc1S2(=O)=O [Example 177, N-Methyl-N′-(2-sulfamoylphenyl)dibenzo[b,d]thiophene-2,8-disulfonamide 5,5-dioxide] | 2200
NS(=O)(=O)c1cc(F)c(F)cc1NS(=O)(=O)c1cccc(Cl)c1Cl [Example 178, 2,3-Dichloro-N-(4,5-difluoro-2-sulfamoylphenyl)benzenesulfonamide] | 2700
N#Cc1ccc(S(N)(=O)=O)c(NS(=O)(=O)CCc2ccc(Cl)c(Cl)c2)c1 [Example 180, 4-Cyano-2-(2-(3,4-dichlorophenyl)ethylsulfonamido)benzenesulfonamide] | 1400
COc1cc(Cl)ccc1CCS(=O)(=O)Nc1cc(C#N)ccc1S(N)(=O)=O [Example 181, 2-(2-(4-Chloro-2-methoxyphenyl)ethylsulfonamido)-4-cyanobenzenesulfonamide] | 370
COc1cc(Cl)ccc1CCS(=O)(=O)Nc1ccc(C#N)cc1S(N)(=O)=O [Example 182, 2-(2-(4-Chloro-2-methoxyphenyl)ethylsulfonamido)-5-cyanobenzenesulfonamide] | 520
CC(C)(C)C#Cc1ccc(CCS(=O)(=O)Nc2ccccc2S(N)(=O)=O)cc1 [Example 183, 2-(2-(4-(3,3-dimethylbut-1-ynyl)phenyl)ethylsulfonamido)benzenesulfonamide] | 81
CC(C)(O)C#Cc1ccc(CCS(=O)(=O)Nc2ccccc2S(N)(=O)=O)cc1 [Example 184, 2-(2-(4-(3-Hydroxy-3-methylbut-1-ynyl)phenyl)ethylsulfonamido)benzenesulfonamide] | 9600
CC(C)(C)C#Cc1ccc(CCS(=O)(=O)Nc2ccccc2S(N)(=O)=O)cn1 [Example 187, 2-(2-(6-(3,3-Dimethylbut-1-ynyl)pyridin-3-yl)ethylsulfonamido)benzenesulfonamide] | 680
NS(=O)(=O)c1ccccc1NS(=O)(=O)CCc1ccc(C#CC2CCCCC2)nc1 [Example 188, 2-(2-(6-(cyclohexylethynyl)pyridin-3-yl)ethylsulfonamido)benzenesulfonamide] | 270
Cc1ccc(NS(=O)(=O)CCc2ccc(Br)cc2)c(S(N)(=O)=O)c1 [Example 189, 2-(2-(4-Bromophenyl)ethylsulfonamido)-5-methylbenzenesulfonamide] | 1400
Cc1ccc(NS(=O)(=O)/C=C/c2ccc(Br)cc2)c(S(N)(=O)=O)c1 [Example 190, (E)-2-(2-(4-Bromophenyl)vinylsulfonamido)-5-methylbenzenesulfonamide] | 680
NS(=O)(=O)c1ccccc1NS(=O)(=O)/C=C/c1cccc(C(F)(F)F)c1 [Example 192, (E)-2-(2-(3-(Trifluoromethyl)phenyl)vinylsulfonamido)benzenesulfonamide] | 3200
NS(=O)(=O)c1ccccc1NS(=O)(=O)/C=C/c1ccccc1F [Example 193, (E)-2-(2-(2-Fluorophenyl)vinylsulfonamido)benzenesulfonamide] | 7900
COc1cc(Cl)ccc1CCS(=O)(=O)Nc1ccc(Cl)cc1S(N)(=O)=O [Example 194, 5-Chloro-2-(2-(4-chloro-2-methoxyphenyl)ethylsulfonamido)benzenesulfonamide] | 1000
NS(=O)(=O)c1c(F)cc(F)cc1NS(=O)(=O)c1cccc(Cl)c1Cl [Example 196, 2,3-Dichloro-N-(3,5-difluoro-2-sulfamoylphenyl)benzenesulfonamide] | 1900
NS(=O)(=O)c1c(F)cc(F)cc1NS(=O)(=O)CCc1ccc(Cl)c(Cl)c1 [Example 197, 2-(2-(3,4-Dichlorophenyl)ethylsulfonamido)-4,6-difluorobenzenesulfonamide] | 640
COc1cc(Cl)ccc1CCS(=O)(=O)Nc1cc(F)cc(F)c1S(N)(=O)=O [Example 198, 2-(2-(4-Chloro-2-methoxyphenyl)ethylsulfonamido)-4,6-difluorobenzenesulfonamide] | 290
N#Cc1ccc(NS(=O)(=O)CCc2ccc(Cl)c(Cl)c2)c(S(N)(=O)=O)c1 [Example 199, 5-Cyano-2-(2-(3,4-dichlorophenyl)ethylsulfonamido)benzenesulfonamide] | 2500
Cc1ccc(S(N)(=O)=O)c(NS(=O)(=O)CCc2ccc(Cl)c(Cl)c2)c1 [Example 200] | 1400
COc1cc(Cl)ccc1CCS(=O)(=O)Nc1cc(C)ccc1S(N)(=O)=O [Example 201, 2-(2-(4-Chloro-2-methoxyphenyl)ethylsulfonamido)-4-methylbenzenesulfonamide] | 720
NS(=O)(=O)c1cc(Cl)ccc1NS(=O)(=O)CCc1ccc(Cl)c(Cl)c1 [Example 202, 5-Chloro-2-(2-(3,4-dichlorophenyl)ethylsulfonamido)benzenesulfonamide] | 2900
COc1ncc(-c2cccc(S(=O)(=O)Nc3ccncc3S(N)(=O)=O)c2)cc1Cl [Example 203, 4-(3-(5-Chloro-6-methoxypyridin-3-yl)phenylsulfonamido)pyridine-3-sulfonamide] | 2100

Further lines, results first:

IC50 [nM] | SMILES
1300 | NS(=O)(=O)c1ccccc1NS(=O)(=O)c1ccc(Cl)c(Cl)c1 [Example 161, 3,4-Dichloro-N-(2-sulfamoylphenyl)benzenesulfonamide]
5700 | COc1cccc(-c2cccc(S(=O)(=O)Nc3ccccc3S(N)(=O)=O)c2)n1 [Example 162, 3-(6-Methoxypyridin-2-yl)-N-(2-sulfamoylphenyl)benzenesulfonamide]
460 | NS(=O)(=O)c1ccccc1NS(=O)(=O)c1ccc(OCc2cnc(Cl)s2)cc1 [Example 163, 2-[[4-[(2-Chlorol,3-thiazol-5-yl)methoxy]phenyl]sulfonylamino]benzenesulfonamide]
190 | COc1ncc(-c2cccc(S(=O)(=O)Nc3ccccc3S(N)(=O)=O)c2)cc1F [Example 164, 3-(5-Fluoro-6-methoxy-pyridin-3-yl)-N-(2-sulfamoylphenyl)benzenesulfonamide]
2300 | COc1ncc(-c2cccc(S(=O)(=O)Nc3ccccc3S(N)(=O)=O)c2)cn1 [Example 165, 3-(2-Methoxypyrimidin-5-yl)-N-(2-sulfamoylphenyl)benzenesulfonamide]
4800 | Cc1ccncc1-c1cccc(S(=O)(=O)Nc2ccccc2S(N)(=O)=O)c1 [Example 166, 3-(4-Methylpyridin-3-yl)-N-(2-sulfamoylphenyl)benzenesulfonamide]
3800 | COc1ncccc1-c1cccc(S(=O)(=O)Nc2ccccc2S(N)(=O)=O)c1 [Example 167, 3-(2-Methoxypyridin-3-yl)-N-(2-sulfamoylphenyl)benzenesulfonamide]
630 | NS(=O)(=O)c1ccccc1NS(=O)(=O)c1cccc(-c2cncc(Cl)c2)c1 [Example 168, 2-[[3-(5-Chloropyridin-3-yl)phenyl]sulfonylamino]benzenesulfonamide]
22 | COc1ncc(-c2cccc(S(=O)(=O)Nc3ccccc3S(N)(=O)=O)c2)cc1Cl [Example 169, 3-(5-Chloro-6-methoxy-pyridin-3-yl)-N-(2-sulfamoylphenyl)benzenesulfonamide]
290 | CN(C)c1ccc(-c2cccc(S(=O)(=O)Nc3ccccc3S(N)(=O)=O)c2)cn1 [Example 170, 3-(6-Dimethylaminopyridin-3-yl)-N-(2-sulfamoylphenyl)benzenesulfonamide]
1500 | NS(=O)(=O)c1ccccc1NS(=O)(=O)c1ccc(-c2ccc(Cl)c(Cl)c2)cc1 [Example 173, 2-[[4-(3,4-Dichlorophenyl)phenyl]sulfonylamino]benzenesulfonamide]
220 | NS(=O)(=O)c1ccccc1NS(=O)(=O)c1cccc(-c2ccc(Cl)c(Cl)c2)c1 [Example 174, 2-[[3-(3,4-Dichlorophenyl)phenyl]sulfonylamino]benzenesulfonamide]
3700 | NS(=O)(=O)c1ccccc1NS(=O)(=O)c1ccc(Oc2ccc(Cl)cc2)cc1 [Example 175, 2-[[4-(4-Chlorophenoxy)phenyl]sulfonylamino]benzenesulfonamide]
2500 | CC(C)(C)C#Cc1cccc(S(=O)(=O)Nc2ccccc2S(N)(=O)=O)c1 [Example 185, 3-(3,3-Dimethylbut-1-ynyl)-N-(2-sulfamoylphenyl)benzenesulfonamide]
250 | COc1cc(Cl)ccc1CCS(=O)(=O)Nc1ccccc1S(N)(=O)=O [Example 186, 2-(2-(4-Chloro-2-methoxyphenyl)ethylsulfonamido)benzenesulfonamide]
8300 | Cc1nc(-c2cccc(S(=O)(=O)Nc3ccccc3S(N)(=O)=O)c2)cs1 [Example 191, 3-(2-Methylthiazol-4-yl)-N-(2-sulfamoylphenyl)benzenesulfonamide]
5500 | NS(=O)(=O)c1cc(Cl)ccc1NS(=O)(=O)c1cccc(Cl)c1Cl [Example 195, 2,3-Dichloro-N-(4-chloro-2-sulfamoylphenyl)benzenesulfonamide]
